Experiments:
[1] = test system: SCD patient neutrophils adhering to activated endothelial cells HMEC-1; assay: In vitro adhesion assay mimicking blood flow: SS patient neutrophils on activated HMEC-1 lined microchannels; assay type: cell-based, human
Source text: This appears to be accompanied by a Compound 1-mediated reduction in disease specific cell activation including 67% lower levels of myeloid derived myeloperoxidase (MPO) and 26% lower levels of neutrophil derived arginase in the lung (FIG. 1). […] This was quantified by real time monitoring of the green florescent patches in the mircochannel, as neutrophils are labeled by a specific Alexa Fluor® 488-conjugated antibody before the perfusion step. […] Under these conditions, adhesion was reduced an average of 54% (p=0.03) (FIG. 2). Mechanistically, not willing to be bound by any theory, Compound 1 may target the stationary adhesion step of neutrophils as it lowered expression levels of key neutrophil integrins including CD11a [reduced 23% (p=0.002)], CD11b [reduced 39% (ns)) and CD18 [reduced 47% (p=0.03)) (FIG. 3).

SCD models = assay: Circulating levels of PMNs in SCD models; assay type: in vivo
Townes mouse model = assay: Plasma sE-Selectin in Townes mouse model of SCD; assay type: in vivo; settings: Townes mice treated with Compound 1
Source text: Recently several drugs targeting white cell binding to endothelial cells, have been advancing in clinical studies in patients. Compound 1 is able to increase expression of fetal hemoglobin in patient derived cells and murine models of SCD and reduce vessel occlusion in SCD murine models. In this Example, the ability of Compound 1 to reduce the adhesive properties of neutrophils from SCD patients and reduce sE-Selectin (sE-Sel) and markers of PMN activation in murine SCD models was studied.
Endothelial E-selectin (E-Sel) slows leukocyte rolling, which is followed by stationary adhesion and transmigration of activated leukocytes. Plasma levels of sE-Sel, produced by the enzymatic cleavage of the extracellular domains of E-Sel, are increased in SCD patients and this may be mediated by its interaction with leukocytes. In the Townes mouse model, plasma sE-Sel is increased 144% ([…]) over levels seen in control mice ([…]).

patient = assay: Adverse event profile when taken with food; assay type: in vivo; settings: once a day with food
Protocol: In some embodiments, Compound 1 or a pharmaceutically acceptable salt or polymorph thereof is administered to a patient, wherein Compound 1 or a pharmaceutically acceptable salt or polymorph thereof is administered once a day with food. […] The incidence and severity of the side effects, such as nausea, emesis and headache, can be reduced when Compound 1 or a pharmaceutically acceptable salt or polymorph thereof, is taken with food.

C[C@@H]1CN(Cc2ncccn2)C[C@H]1c1cn2c(C3CCOCC3)ncc2c(=O)[nH]1 [Compound 1, 6-[(3S,4S)-4-methyl-1-(pyrimidin-2-ylmethyl)pyrrolidin-3-yl]-3-tetrahydropyran-4-yl-7H-imidazo[1,5-a]pyrazin-8-one]
incubation time at which inhibitory effect was initiated [1]: 15 min
reduction of neutrophil adhesion (average) ([1]; 30 min incubation with 30 μM, p=0.03, FIG. 2): 54%
effect on neutrophil adhesion to activated HMEC-1 ([1]; added to blood samples prior to the perfusion step): reduced adhesions significantly and in a dose dependent manner
circulating levels of PMNs (SCD models): reduced circulating levels of PMNs
plasma sE-Sel (Townes mouse model; untreated Townes 139, control mice 57): 92 ng/mL
plasma sE-Sel levels elevated over control mice (Townes mouse model; untreated Townes increased 144%): 61%
effect of food on adverse event profile (nausea, emesis, headache) (patient): food can dramatically reduce the adverse event profile

— US12213975B2, “PDE9 inhibitors for treating sickle cell disease” (Cardurion Pharmaceuticals, Inc., priority 2018, dated 2025)
